Test results as given in paper PMC5275761 (Biochemistry, 2016).

Biological target: CYP3A4 (Homo sapiens, UniProt P08684, S18F)
Experiment: Stopped-flow spectroscopy of ligand binding to CYP3A4 nanodiscs
Conditions: faster in POPC nanodiscs

SMILES: C[C@]12CC[C@H]3[C@@H](CCC4=CC(=O)CC[C@@]43C)[C@@H]1CC[C@@H]2O [TST, testosterone]
- rate constant for binding in POPC nanodiscs relative to 25% POPC/75% DMPC nanodiscs: ~ 4 fold
